How the values were obtained:
Type in all cases: binding
[1] = biological target: T1, DELAY OF GERMINATION1 (DOG1) (Arabidopsis thaliana, UniProt A0SVK0); experiment: UV-visible absorption titration of apo-DOG1 with hemin (Soret peak, […] nm), […] fit
T1 sequence (A0SVK0 1-291): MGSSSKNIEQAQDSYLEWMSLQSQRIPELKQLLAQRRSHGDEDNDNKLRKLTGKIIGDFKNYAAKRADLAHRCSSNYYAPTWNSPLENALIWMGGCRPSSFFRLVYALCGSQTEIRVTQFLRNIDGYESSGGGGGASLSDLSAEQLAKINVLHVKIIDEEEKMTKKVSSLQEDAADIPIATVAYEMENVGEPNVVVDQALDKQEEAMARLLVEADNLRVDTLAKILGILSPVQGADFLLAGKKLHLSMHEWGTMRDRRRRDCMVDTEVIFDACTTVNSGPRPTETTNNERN

[2] = biological target: T2, DELAY OF GERMINATION1 (DOG1) (Arabidopsis thaliana, UniProt A0SVK0, H245A/H249A); experiment: UV-visible absorption hemin titration ([…] nm)
T2 construct: full-length, N-terminal His6-tagged
T2 sequence (A0SVK0 whole entry H245A/H249A): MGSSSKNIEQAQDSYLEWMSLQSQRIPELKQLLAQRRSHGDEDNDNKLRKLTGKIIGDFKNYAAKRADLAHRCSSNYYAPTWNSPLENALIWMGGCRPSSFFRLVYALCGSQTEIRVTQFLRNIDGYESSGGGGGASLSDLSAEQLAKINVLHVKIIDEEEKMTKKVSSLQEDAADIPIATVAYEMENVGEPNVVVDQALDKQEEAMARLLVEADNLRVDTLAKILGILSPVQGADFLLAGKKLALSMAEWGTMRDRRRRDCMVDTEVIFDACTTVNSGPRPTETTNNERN

[3] = biological target: T3, DELAY OF GERMINATION1 (DOG1) (Arabidopsis thaliana, UniProt A0SVK0, H245A); experiment: UV-visible absorption hemin titration ([…] nm)
T3 construct: full-length, N-terminal His6-tagged
T3 sequence (A0SVK0 whole entry H245A): as the sequence (A0SVK0 whole entry H245A/H249A) above, with A249H counted along it

SMILES: C=CC1=C(C)C2=Cc3c(C=C)c(C)c4[n]3[Fe]([Cl])[n]3c(c(C)c(CCC(=O)O)c3=CC3=NC(=C4)C(C)=C3CCC(=O)O)=CC1=N2 [hemin]
- Kd [1]: 59 nM
- Kd [2]: 918 nM
- Kd [3]: 129 nM
